Where a name gives a salt, the structure may show the parent alone.
Biological target: CCR2 (Homo sapiens (Human), UniProt P41597)
Experiment: MCP-1 Receptor Binding Assay in THP-1 Cells
Conditions: 0.5 nM 125I labeled MCP-1, 2 hours at 30° C., average of the two most similar values where more than one IC50, read-out: Inhibition of MCP-1 Binding IC50 CCR2 Binding
Description: Compounds of the invention were subjected to various representative biological tests. […] MCP-1 Receptor Binding Assay in THP-1 Cells Human monocytic cell line THP-1 cells were obtained from American Type Culture Collection (Manassas, Va., USA). The THP-1 cells were grown in RPMI-1640 (RPMI: Roswell Park Memorial Institute Medium-cell culture growth media) supplemented with 10% fetal bovine serum in a humidified 5% CO2 atmosphere at 37° C. The cell density was maintained between […].
THP-1 (cells were incubated with 0.5 nM ^125I labeled MCP-1 (Perkin-Elmer Life Sciences, Inc. Boston, Mass.) in the presence of varying concentrations of either unlabeled MCP-1 (R & D Systems, Minneapolis, Minn.) or test compound for 2 hours at 30° C. in a 96 well plate. Cells were then harvested onto a filter plate, dried, and 20 μL of Microscint 20 was added to each well. Plates were counted in a TopCount NXT, Microplate Scintillation & Luminescence Counter (Perkin-Elmer Life Sciences, Inc. Boston, Mass.). Blank values (buffer only) were subtracted from all values and drug treated values were compared to vehicle treated values. 1 μM cold MCP-1 was used for nonspecific binding.

CCR2, sequence (P41597 other isoform, or with tags, fused parts or gaps isoform P41597-2): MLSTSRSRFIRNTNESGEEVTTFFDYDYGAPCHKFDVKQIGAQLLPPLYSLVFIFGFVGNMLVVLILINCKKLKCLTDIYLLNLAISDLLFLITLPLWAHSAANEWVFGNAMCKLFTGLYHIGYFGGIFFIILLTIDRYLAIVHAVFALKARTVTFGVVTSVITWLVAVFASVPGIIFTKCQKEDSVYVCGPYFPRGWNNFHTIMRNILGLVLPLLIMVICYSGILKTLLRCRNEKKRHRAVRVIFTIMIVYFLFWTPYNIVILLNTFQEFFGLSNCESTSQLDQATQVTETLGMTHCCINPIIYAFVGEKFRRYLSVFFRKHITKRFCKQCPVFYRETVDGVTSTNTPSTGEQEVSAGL

Structure (SMILES)	IC50 [nM]
NC(=O)C(NC1CCC(c2c[nH]c3cccnc23)CC1)C1CCN(C(=O)/C=C/c2cc(F)c(F)c(F)c2)CC1 (single isomer, unassigned) [Example 39b, 2-[4-(1H-pyrrolo[3,2-b]pyridin-3-yl)cyclohexyl]amino-2-[1-(trans-3,4,5-trifluorocinnamoyl)-piperidin-4-yl]-acetamide]	600
NC(=O)C(NC1CCC(c2c[nH]c3ccccc23)CC1)C1CCN(C(=O)Nc2cccc(F)c2)CC1 (stereo not drawn) [Example 20, 2-[4-(1H-Indol-3-yl)-cyclohexylamino]-2-[N-(3-fluorophenyl)piperidine-1-carboxamid-4-yl]-acetamide]	370
NC(=O)C(NC1CCC(c2c[nH]c3ccccc23)CC1)C1CCN(C(=O)Nc2ccc(C(F)(F)F)cc2)CC1 (stereo not drawn) [Example 9, 2-[4-(1H-Indol-3-yl)-cyclohexylamino]-2-[N-(4-{trifluoromethyl}-phenyl)piperidine-1-carboxamid-4-yl]-acetamide]	130
CCOC(=O)c1cccc(NC(=O)N2CCC(C(NC3CCC(c4c[nH]c5ccccc45)CC3)C(N)=O)CC2)c1 (stereo not drawn) [Example 19, 2-[4-(1H-Indol-3-yl)-cyclohexylamino]-2-[N-(3-{ethoxycarbonyl}-phenyl)piperidine-1-carboxamid-4-yl]-acetamide]	58
NC(=O)C(NC1CCC(c2c[nH]c3ccccc23)CC1)C1CCN(C(=O)/C=C/c2ccc3c(c2)OC(F)(F)O3)CC1 (stereo not drawn) [Example 17, 2-[4-(1H-Indol-3-yl)-cyclohexylamino]-2-[1-(trans-3-(2,2-difluoro-1,3-benzodioxol-5-yl)prop-2-enoyl)piperidin-4-yl]-acetamide]	177
NC(=O)C(NC1CCC(c2c[nH]c3ccccc23)CC1)C1CCN(C(=O)/C=C/c2ccc3c(c2)CCO3)CC1 (stereo not drawn) [Example 15, 2-[4-(1H-Indol-3-yl)-cyclohexylamino]-2-[1-(trans-3-(2,3-dihydrobenzofuran-5-yl)prop-2-enoyl)piperidin-4-yl]-acetamide]	149
O=C(O)C(N[C@H]1CC[C@H](c2c[nH]c3ccccc32)CC1)C1CCN(C(=O)/C=C/c2cc(F)c(F)c(F)c2)CC1 (stereo partly drawn) [Example 26, 2-[4-(1H-Indol-3-yl)-cyclohexylamino]-2-[1-(trans-3,4,5-trifluorocinnamoyl)-piperidin-4-yl]-acetic acid hydrochloride]	20
NC(=O)C(NC1CCC(c2c[nH]c3ccccc23)CC1)C1CCN(C(=O)Nc2ccc(Cl)c(Cl)c2)CC1 (single isomer, unassigned) [Example 4b, 2-[4-(1H-Indol-3-yl)-cyclohexylamino]-2-[N-(3,4-dichlorophenyl)piperidine-1-carboxamid-4-yl]-acetamide]	8
NC(=O)C(NC1CCC(c2c[nH]c3ccccc23)CC1)C1CCN(C(=O)Nc2ccc(OC(F)(F)F)cc2)CC1 (stereo not drawn) [Example 11, 2-[4-(1H-Indol-3-yl)-cyclohexylamino]-2-[N-(4-{trifluoromethoxy}-phenyl)piperidine-1-carboxamid-4-yl]-acetamide]	264
NC(=O)C(NC1CCC(c2c[nH]c3ccccc23)CC1)C1CCN(C(=O)/C=C/c2cccc(C(F)(F)F)c2)CC1 (stereo not drawn) [Example 10, 2-[4-(1H-Indol-3-yl)-cyclohexylamino]-2-[1-(trans-3-{trifluoromethyl}-cinnamoyl)piperidin-4-yl]-acetamide]	75
O=C(O)C(N[C@H]1CC[C@H](c2c[nH]c3ccccc32)CC1)C1CCN(C(=O)Nc2ccc(Cl)c(Cl)c2)CC1 (stereo partly drawn) [Example 27, 2-[4-(1H-Indol-3-yl)-trans-cyclohexylamino]-2-[N-(3,4-dichlorophenyl)-piperidine-1-carboxamid-4-yl]-acetic acid hydrochloride]	230
CNC(=O)C(NC1CCC(c2c[nH]c3ccccc23)CC1)C1CCN(C(=O)/C=C/c2cc(F)c(F)c(F)c2)CC1 (stereo not drawn) [Example 53, N-Methyl-2-{[4-(1H-Indol-3-yl)-cyclohexylamino]-2-[1-(trans-3,4,5-trifluorocinnamoyl)-piperidin-4-yl]}-acetamide]	984
CN(C)C(=O)C(NC1CCC(c2c[nH]c3ccccc23)CC1)C1CCN(C(=O)/C=C/c2cc(F)c(F)c(F)c2)CC1 (stereo not drawn) [Example 54, N,N-Dimethyl-2-{[4-(1H-Indol-3-yl)-cyclohexylamino]-2-[1-(trans-3,4,5-trifluorocinnamoyl)-piperidin-4-yl]}-acetamide]	981
NC(=O)C(NC1CCC(c2c[nH]c3ccccc23)CC1)C1CCN(C(=O)/C=C/c2ccc3c(c2)OCCO3)CC1 (stereo not drawn) [Example 23, 2-[4-(1H-Indol-3-yl)-cyclohexylamino]-2-[1-(trans-3-[2,3-dihydro-1,4-benzodioxin-7-yl]prop-2-enoyl)piperidin-4-yl]-acetamide]	602
NC(=O)C(NC1CCC(c2c[nH]c3ccccc23)CC1)C1CCN(C(=O)/C=C/c2ccccc2F)CC1 (stereo not drawn) [Example 8, 2-[4-(1H-Indol-3-yl)-cyclohexylamino]-2-[1-(trans-2-fluorocinnamoyl)-piperidin-4-yl]-acetamide]	270
NC(=O)C(N[C@H]1CC[C@H](c2c[nH]c3cccnc32)CC1)C1CCN(C(=O)/C=C/c2ccccc2)CC1 (stereo partly drawn) [Example 43, R,S-2-[trans-4-(1H-pyrrolo[3,2-b]pyridin-3-yl)cyclohexyl]amino-2-[1-(trans-cinnamoyl)-piperidin-4-yl]-acetamide]	122
NC(=O)C(N[C@H]1CC[C@H](C2CNc3ccccc32)CC1)C1CCN(C(=O)/C=C/c2cc(F)c(F)c(F)c2)CC1 (stereo partly drawn) [Example 52, 2-{[4-(2,3-dihydro-1H-indol-3-yl)-trans-cyclohexylamino]-2-[1-(trans-3,4,5-trifluorocinnamoyl)-piperidin-4-yl]}-acetamide]	950
COC(=O)C(NC1CCC(c2c[nH]c3ccccc23)CC1)C1CCN(C(=O)/C=C/c2cc(F)c(F)c(F)c2)CC1 (stereo not drawn) [Example 49b]	750
NC(=O)C(NC1CCC(c2c[nH]c3ccccc23)CC1)C1CCN(C(=O)/C=C/c2ccccc2)CC1 (stereo not drawn) [Example 18, 2-[4-(1H-Indol-3-yl)-cyclohexylamino]-2-[1-(trans-cinnamoyl)piperidin-4-yl]-acetamide]	190
NC(=O)C(NC1CCC(c2c[nH]c3ccncc23)CC1)C1CCN(C(=O)/C=C/c2ccc(F)cc2)CC1 (single isomer, unassigned) [Example 47b, 2-[4-(1H-pyrrolo[3,2-c]pyridin-3-yl)cyclohexyl]amino-2-[1-(trans-4-fluorocinnamoyl)-piperidin-4-yl]-acetamide]	641
COc1ccc(C2CCC(NC(C(N)=O)C3CCN(C(=O)/C=C/c4cc(F)c(F)c(F)c4)CC3)CC2)cn1 (stereo not drawn) [Example 50, 2-[4-(6-methoxypyridin-3-yl)cyclohexyl]amino-2-[1-(trans-3,4,5-trifluorocinnamoyl)-piperidin-4-yl]-acetamide]	635
